Measured values from patent publication US7202269B2, “GlyT2 modulators” (Janssen Pharmaceutica N.V., priority 2003, dated 2007).
Blank lines part the entries; values can stand above or below the molecule they belong to.

Biological target: T1, human glycine transporter-2 (GlyT2) (Homo sapiens, UniProt Q9Y345)
T1 construct: The entire coding region of the human GlyT2 cDNA was cloned into the mammalian expression vector pClNeo; expressed in transfected cells; host or cells: Cos-7 cells (African green monkey kidney, ATCC), stably transfected, G418-selected; vector pClNeo
T1 sequence (Q9Y345 1-797): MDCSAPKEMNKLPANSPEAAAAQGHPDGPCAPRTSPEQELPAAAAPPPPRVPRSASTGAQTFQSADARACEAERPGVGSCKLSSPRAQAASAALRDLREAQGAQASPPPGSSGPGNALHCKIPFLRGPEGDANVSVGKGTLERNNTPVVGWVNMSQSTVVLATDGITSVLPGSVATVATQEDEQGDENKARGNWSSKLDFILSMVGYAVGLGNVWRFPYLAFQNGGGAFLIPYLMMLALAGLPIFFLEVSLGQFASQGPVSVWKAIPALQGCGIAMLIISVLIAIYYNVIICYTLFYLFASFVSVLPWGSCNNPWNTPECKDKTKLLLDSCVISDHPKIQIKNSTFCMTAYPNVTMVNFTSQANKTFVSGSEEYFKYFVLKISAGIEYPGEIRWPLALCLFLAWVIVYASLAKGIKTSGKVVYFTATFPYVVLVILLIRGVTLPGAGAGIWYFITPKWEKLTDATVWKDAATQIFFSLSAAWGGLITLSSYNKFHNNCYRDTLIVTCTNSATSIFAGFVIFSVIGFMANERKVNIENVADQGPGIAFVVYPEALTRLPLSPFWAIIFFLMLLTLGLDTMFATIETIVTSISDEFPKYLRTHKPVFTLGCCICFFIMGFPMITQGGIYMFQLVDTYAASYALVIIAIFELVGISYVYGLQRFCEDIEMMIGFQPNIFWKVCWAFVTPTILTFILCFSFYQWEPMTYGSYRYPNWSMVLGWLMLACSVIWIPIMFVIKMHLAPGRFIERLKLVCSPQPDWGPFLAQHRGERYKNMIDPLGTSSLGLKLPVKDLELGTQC
Test: Inhibition of [14C]-glycine uptake in COS-7 cells transfected with human GlyT2
Type: cell-based
Settings: 2 h at 37° C., Cos-7 cells stably transfected with human GlyT2
Procedure: GlyT2 antagonist activity of representative compounds of the invention was determined in accordance with the assay described in the Examples and by measuring the ability of compounds to inhibit the uptake of [^14C]-glycine in COS-7 cells transfected with the human glycine transporter-2 (GlyT2). The GlyT2 antagonist activities of these representative compounds are set forth hereinafter in Table 1.
Cos-7 cells (African green monkey, kidney) from American Type Culture Collection were grown in DMEM supplemented with 10% fetal bovine serum. The entire coding region of the human GlyT2 cDNA was cloned into the mammalian expression vector pClNeo, and then stably transfected into Cos-7 cells. Transfection was performed essentially as described by T. W. Lovenberg et al. (Mol. Pharmacol. 1999, 55:1101–1107): Briefly, cells were grown to 70–80% confluence, removed from the plate with trypsin, and pelleted in a clinical centrifuge. The pellet was resuspended in 400 μL complete medium and transferred to an electroporation cuvette with a 0.4 cm gap between the electrodes (Bio-Rad, 165–2088). One microgram of supercoiled GlyT2 cDNA was added to the cells, and the suspension was mixed. The voltage for the electroporation was set at 0.25 kV, and the capacitance was set at 960 μF. After electroporation, the cuvette contents were diluted to 10 mL with complete medium, and 0.5 mL, 1.0 mL, 2.0 mL and remainder (˜6.5 mL) portions were plated onto four 10-cm dishes. The cells were incubated 24 h before adding 600 μg/mL G418. Colonies that survived selection were isolated and tested for GlyT2 expression.
The day before the assay, the GlyT2 expressing cells were plated into 96-well scintillating microplates (Amersham, RPNQ 0160) at a density of approximately 20,000 cells per well. Cells were grown overnight at 37° C. in 5% CO2 and then washed once with 37° C. HEPES buffered saline (HBS: 150 mM NaCl, 20 mM HEPES, 1 mM CaCl2, 10 mM glucose, 5 mM KCl, 1 mM MgCl2; pH 7.4). Eighty microliters of 37° C. HBS was subsequently added to each well. Test solutions of GlyT2 inhibitors were prepared in HBS from DMSO stock solutions, and 5 μL of test solution was added to each test well. Total transport and non-specific background were determined by adding 5 μL HBS or 5 μL 2 M glycine, respectively, to the appropriate control wells. Plates were then left at rt for 5 min before the addition of 20 μL of 100 μM ^14C-glycine (NEN, NEC 048H) to each well for a final concentration of 20 μM. Plates were incubated for 2 h at 37° C. with 5% CO2. After 2 h the reaction mixtures were removed by aspiration, and the plates were washed once with ice-cold HBS. Plates were sealed with TopSeal (Packard, 6005185) and counted on a Packard TopCount® scintillation counter.

Structure (SMILES): N#C/N=C(\Nc1ccc(-c2ccccc2)cc1)N[C@@H](Cc1ccccc1)C(=O)NCCCN1CCCC1 [Example 1, (S)-2-(N′-Biphenyl-4-yl-N″-cyano-guanidino)-3-phenyl-N-(3-pyrrolidin-1-yl-propyl)-propionamide]
IC50 (Table 1, 20 μM): 11 nM

Structure (SMILES): N#C/N=C(\Nc1ccc(-c2ccccc2)cc1)N[C@H](CC(=O)NCCN1CCCC1)c1ccccc1 [Example 8, (R)-3-(N′-Biphenyl-4-yl-N″-cyano-guanidino)-3-phenyl-N-(2-pyrrolidin-1-yl-ethyl)-propionamide]
IC50 (Table 1, 20 μM): 31 nM

Structure (SMILES): O=C(NCCN1CCCC1)[C@H](Cc1ccccc1)NC(=S)Nc1ccc(Oc2ccc(Cl)cc2)cc1 [Example 9, (S)-2-{3-[4-(4-Chloro-phenoxy)-phenyl]-thioureido}-3-phenyl-N-(2-pyrrolidin-1-yl-ethyl)-propionamide]
IC50 (Table 3, 20 μM): 32 nM

Structure (SMILES): O=C(CC[C@H](Cc1ccccc1)NC(=S)Nc1ccc(-c2ccccc2)cc1)NCCN1CCCC1 [Example 31, (R)-4-(3-Biphenyl-4-yl-thioureido)-5-phenyl-pentanoic Acid (2-pyrrolidin-1-yl-ethyl)-amide]
IC50 (Table 3, 20 μM): 89 nM

Structure (SMILES): N#C/N=C(\Nc1ccc(-c2ccccc2)cc1)N[C@H](CCC(=O)NCCN1CCCC1)Cc1ccccc1 [Example 42, (R)-4-(N′-Biphenyl-4-yl-N″-cyano-guanidino)-5-phenyl-pentanoic Acid (2-pyrrolidin-1-yl-ethyl)-amide]
IC50 (Table 1, 20 μM): 93 nM

Structure (SMILES): N#C/N=C(\Nc1ccc(-c2ccccc2)cc1)N[C@H](CC(=O)NCCN1CCCC1)Cc1ccccc1 [Example 53, (S)-3-(N′-Biphenyl-4-yl-N″-cyano-guanidino)-4-phenyl-N-(2-pyrrolidin-1-yl-ethyl)-butyramide]
IC50 (Table 1, 20 μM): 103 nM

Structure (SMILES): CN(C)CCN(C)C(=O)C(Cc1ccccc1)NC(=O)Nc1ccc(-c2ccccc2)cc1 (stereo not drawn) [Example 61, 2-(3-Biphenyl-4-yl-ureido)-N-(2-dimethylamino-ethyl)-N-methyl-3-phenyl-propionamide]
IC50 (Table 2, 20 μM): 3500 nM

Structure (SMILES): O=C(Nc1ccc(Oc2ccccc2)cc1)N[C@@H](Cc1cscn1)C(=O)NCCN1CCCC1 [Example 74, (S)-2-[3-(4-Phenoxy-phenyl)-ureido]-N-(2-pyrrolidin-1-yl-ethyl)-3-thiazol-4-yl-propionamide]
IC50 (Table 2, 20 μM): 1060 nM

Structure (SMILES): O=C(Nc1ccc(-c2ccccc2)cc1)NC1(C(=O)NCCN2CCCC2)Cc2ccccc2C1 [Example 84, 2-(3-Biphenyl-4-yl-ureido)-indan-2-carboxylic Acid (2-pyrrolidin-1-yl-ethyl)-amide]
IC50 (Table 2, 20 μM): 10000 nM

Structure (SMILES): NCCNC(=O)CC[C@H](Cc1ccccc1)NC(=O)Nc1ccc(Oc2ccccc2)cc1 [Example 111, (R)-4-[3-(4-Phenoxy-phenyl)-ureido]-5-phenyl-pentanoic Acid (2-amino-ethyl)-amide]
IC50 (Table 2, 20 μM): 500 nM

More lines, in order of falling IC50 (Table 2, 20 μM), values ahead:

IC50 (Table 2, 20 μM): 405 nM
Structure (SMILES): CC(C)N(CCNC(=O)[C@H](Cc1ccccc1)NC(=O)Nc1ccc(-c2cccs2)cc1)C(C)C [Example 65, (S)-N-(2-Diisopropylamino-ethyl)-3-phenyl-2-[3-(4-thiophen-2-yl-phenyl)-ureido]-propionamide]

IC50 (Table 2, 20 μM): 398 nM
Structure (SMILES): NCCNC(=O)[C@H](Cc1ccccc1)NC(=O)Nc1ccc(Oc2ccccc2)cc1 [Example 98, (S)-N-(2-Amino-ethyl)-2-[3-(4-phenoxy-phenyl)-ureido]-3-phenyl-propionamide]

IC50 (Table 2, 20 μM): 269 nM
Structure (SMILES): O=C(Nc1ccc(S(=O)(=O)c2ccc(Cl)cc2)cc1)N[C@@H](Cc1ccccc1)C(=O)NCCN1CCCC1 [Example 85, (S)-2-{3-[4-(4-Chloro-benzenesulfonyl)-phenyl]-ureido}-3-phenyl-N-(2-pyrrolidin-1-yl-ethyl)-propionamide]

IC50 (Table 2, 20 μM): 112 nM
Structure (SMILES): O=C(/C=C/[C@H](Cc1ccccc1)NC(=O)Nc1ccc(-c2ccccc2)cc1)NCCN1CCCC1 [Example 101, (E)-(S)-4-(3-Biphenyl-4-yl-ureido)-5-phenyl-pent-2-enoic Acid (2-pyrrolidin-1-yl-ethyl)-amide]

IC50 (Table 2, 20 μM): 95 nM
Structure (SMILES): O=C(C[C@H](Cc1ccccc1)NC(=O)CNc1ccc(Oc2ccc(Cl)cc2)cc1)NCCN1CCCC1 [Example 28, (S)-3-{2-[4-(4-Chloro-phenoxy)-phenylamino]-acetylamino}-4-phenyl-N-(2-pyrrolidin-1-yl-ethyl)-butyramide]

IC50 (Table 2, 20 μM): 76 nM
Structure (SMILES): CCCNCCNC(=O)CC[C@H](Cc1ccccc1)NC(=O)Nc1ccc(-c2ccccc2)cc1 [Example 87, (R)-4-(3-Biphenyl-4-yl-ureido)-5-phenyl-pentanoic Acid (2-propylamino-ethyl)-amide]

IC50 (Table 2, 20 μM): 58 nM
Structure (SMILES): O=C(CNc1ccc(Oc2ccc(Cl)cc2)cc1)N[C@@H](Cc1ccccc1)C(=O)NCCN1CCCC1 [Example 27, (S)-2-{2-[4-(4-Chloro-phenoxy)-phenylamino]-acetylamino}-3-phenyl-N-(2-pyrrolidin-1-yl-ethyl)-propionamide]

IC50 (Table 2, 20 μM): 57 nM
Structure (SMILES): CC(C)NCCNC(=O)CC[C@H](Cc1ccccc1)NC(=O)Nc1ccc(-c2ccccc2)cc1 [Example 26, (R)-4-(3-Biphenyl-4-yl-ureido)-5-phenyl-pentanoic Acid (2-isopropylamino-ethyl)-amide]

IC50 (Table 2, 20 μM): 52 nM
Structure (SMILES): CC(C)NCCNC(=O)/C=C/[C@H](Cc1ccccc1)NC(=O)Nc1ccc(-c2ccccc2)cc1 [Example 21, (E)-(S)-4-(3-Biphenyl-4-yl-ureido)-5-phenyl-pent-2-enoic Acid (2-isopropylamino-ethyl)-amide]

IC50 (Table 2, 20 μM): 48 nM
Structure (SMILES): CCN(CC)CCNC(=O)/C=C/[C@H](Cc1ccccc1)NC(=O)Nc1ccc(-c2ccccc2)cc1 [Example 19, (E)-(S)-4-(3-Biphenyl-4-yl-ureido)-5-phenyl-pent-2-enoic Acid (2-diethylamino-ethyl)-amide]

IC50 (Table 2, 20 μM): 39 nM
Structure (SMILES): O=C(/C=C/[C@H](Cc1ccccc1)NC(=O)Nc1ccc(Oc2ccc(F)cc2)cc1)NCCN1CCCC1 [Example 11, (E)-(S)-4-{3-[4-(4-Fluoro-phenoxy)-phenyl]-ureido}-5-phenyl-pent-2-enoic Acid (2-pyrrolidin-1-yl-ethyl)-amide]

IC50 (Table 2, 20 μM): 27 nM
Structure (SMILES): Cc1ccc([C@@H](CC(=O)NCCN2CCCC2)NC(=O)Nc2ccc(-c3ccccc3)cc2)cc1 [Example 6, (R)-3-(3-Biphenyl-4-yl-ureido)-N-(2-pyrrolidin-1-yl-ethyl)-3-p-tolyl-propionamide]

IC50 (Table 2, 20 μM): 18 nM
Structure (SMILES): O=C(Nc1ccc(-c2ccccc2)cc1)N[C@H](CCCNCCN1CCCC1)Cc1ccccc1 [Example 2, 1-[(R)-1-Benzyl-4-(2-pyrrolidin-1-yl-ethylamino)-butyl]-3-biphenyl-4-yl-urea]

IC50 (Table 2, 20 μM): 18 nM
Structure (SMILES): CC(C)N(CCNC(=O)[C@H](Cc1ccccc1)NC(=O)Nc1ccc(Oc2ccc(Cl)cc2)cc1)C(C)C [Example 3, (S)-2-{3-[4-(4-Chloro-phenoxy)-phenyl]-ureido}-N-(2-diisopropylamino-ethyl)-3-phenyl-propionamide]
